“Also recorded” adds a separate entry of the source. Like-named read-outs stand apart in the source and are kept apart here.
Tests used:
[1] = cited from earlier work
[2] = system: pregnant uterine arteries; test: PGI2 release in pregnant uterine arteries
Text: (§1) Accordingly, as may be observed, there is an inverse relationship depending on the vascular circuit.
(§2) With reference to FIGS. 5A and 5B, the inventor's laboratory data indicates the presence of GABA-a receptors in both systemic vessels and uterine vessel in pregnant animals. […] It may be noted that the third and last columns of FIG. 5A and the last two columns of FIG. 5B reflect competition on the GABA-a receptor between GABA and bicuculine. GABA improves PGI2 response substantially more in the absence of GABA-a receptor competition (e.g., bicuculine); and GABA with bicuculine improves PGI2 response substantially more than bicuculine alone.
(§3) With reference to FIG. 6, the inventor's laboratory data further illustrates that when the endothelium is removed from the pregnant uterine and systemic vessels, respectively, the PGI2 release trends that had been seen in the intact vessels is reversed. As may be observed, PGI2 release in pregnant uterine vessels is reduced in the presence of AII when the endothelium is removed; inversely, PGI2 release in pregnant systemic vessels is increased in the presence of AII when the endothelium is removed.
FIG. 1A illustrates an Ouabain Dose Response Curve (“ODRC”) in pregnant uterine tissue. […] This may indicate inactivity of the GABA-a/AT1 construct without Taurine. It may have been expected that substantially less PGI2 would be released without AII than with AII. […] This may indicate an active GABA-a/AT1 construct under such conditions. […] Accordingly, the inventor has surmised that non-pregnant normotensive systemic vessel behave similarly to pregnant uterine vessels when exposed to Ouabain, releasing higher levels of PGI2 in the presence of GABA and AII.
This increase in PGI2 release in the presence of higher Ouabain may explain the EO resistance noted in pregnancy.

[3] = system: pregnant systemic arteries; test: PGI2 release in pregnant systemic arteries
Text: During experimentation between uterine vessels and systemic vessels during pregnancy, an inverse response between uterine and systemic vessels and their levels of PGI2 release was found. […] Pregnant uterine vessels, however, required GABA and angiotensin II to increase PGI2. The inventor has surmised that this mechanism is likely feto-productive in cases of hemorrhage and low blood volume during pregnancy. During these times, AII increases, dilating the uterine circuit and constricting the systemic circuit, thereby allowing the maternal blood to pass by the baby, prolonging the baby's chances of survival.
as §1, §2, §3

[4] = system: intact nonpregnant systemic vessels; test: PGI2 release in intact nonpregnant systemic vessels (GABA dose response curves); parameters: species or system sheep; settings: for PGI2 levels on addition of Nanomolar Ouabain: most concentrations of GABA
Text: In FIGS. 2A-2C, GABA dose response curves of systemic vessels in 18 day postpartum sheep are provided. These vessels are believed to be representative of non-pregnant normotensive systemic vessels. […] Accordingly, it appears that at least one of Taurine or EO (or the like) may be needed to up-regulate the GABA-a receptor to augment PGI2 levels in the presence of nanomolar ouabain, or may at least be substantially helpful to increase PGI2 levels.
In FIG. 2C, the systemic vessels react to variable GABA in a similar manner as pregnant uterine vessels (see, e.g., FIG. 1B), but only in the presence of Ouabain.
Accordingly, the inventor has unexpectedly discovered that Ouabain exposure may modulate the PGI2 response through interaction with the GABA-a/AT1 construct.

Cyclooxygenase (COX) = settings: humans or rats, pharmacological blockade of COX; cited from earlier work

## CCCCOC(=O)NS(=O)(=O)c1sc(CC(C)C)cc1-c1ccc(Cn2ccnc2)cc1 [C21]
[1]; eHTN humans
  Blood pressure: not shown to reduce blood pressure

## CN1CCc2cc3c(cc2[C@H]1[C@@H]1OC(=O)c2c1ccc1c2OCO1)OCO3 [bicuculine]
[2]; pregnant uterine arteries, even when additional GABA was added (FIG. 5B)
  PGI2 release on blocking GABA-a receptors: reduced PGI2 release in both circuits; also recorded: substantially reduced PGI2 release
[3]; pregnant systemic vessels (FIG. 5A)
  PGI2 release on blocking GABA-a receptors: reduced PGI2 release in both circuits

## NCCCC(=O)O [GABA]
[1]; normotensive patients
  Blood pressure: no effect
[4]; 18 day postpartum sheep systemic vessels, no EO or Taurine (FIG. 2A)
  PGI2 response to GABA: no PGI2 response
[2]; pregnant uterine arteries, GABA alone, no AII (FIG. 5B col. 2)
  PGI2 release on addition of GABA: insignificant effect on PGI2 release
[2]; pregnant uterine arteries, GABA with AII (FIG. 5B col. 1)
  PGI2 release on addition of GABA and AII: increased PGI2 release
[3]; pregnant systemic vessels, absence of angiotensin II
  PGI2 release on exposure to GABA: increased PGI2 release

## C[C@@H]1O[C@@H](O[C@H]2C[C@@H](O)[C@]3(CO)[C@H]4[C@H](O)C[C@]5(C)[C@@H](C6=CC(=O)OC6)CC[C@]5(O)[C@@H]4CC[C@]3(O)C2)[C@H](O)[C@H](O)[C@H]1O [Ouabain]
[4]; with AII, no Taurine (FIG. 2C)
  PGI2 levels on addition of Nanomolar Ouabain: significant increase in PGI2 levels
[4]; without AII, no Taurine (FIG. 2B)
  PGI2 levels on addition of Nanomolar Ouabain: significant increase in PGI2 levels
[2]; pregnant uterine vessels, Ouabain from 10^−10 M to 10^−9 M, low taurine, GABA approx. −7 M (FIGS. 4A, 4B)
  PGI2 release with increase in Ouabain: higher PGI2 release

## Angiotensin II [AII]
[4]; 18 day postpartum sheep, intact systemic vessels exposed to GABA, without Taurine or EO (FIG. 2A)
  PGI2 formation by presence or absence of Angiotensin II: no significant PGI2 formation
[4]; in the presence of Ouabain, especially at higher concentrations of GABA (FIGS. 2B vs 2C)
  PGI2 release on addition of AII: substantially more PGI2 release
[2]; pregnant uterine arteries, GABA provided, without taurine, various levels of Ouabain (FIG. 1A)
  Effect of presence or absence of AII on PGI2 release: negligible effect on PGI2 release
[2]; pregnant uterine arteries, bicuculine and GABA present (FIG. 5B col. 4)
  PGI2 release on further addition of AII: even further decreased PGI2
[2]; pregnant uterine circuit, most levels of GABA, no Taurine, no Ouabain (FIG. 3A)
  PGI2 release with versus without AII: more PGI2 is released in the presence of AII
[2]; pregnant uterine vessels, endothelium removed (FIG. 6)
  PGI2 release in the presence of AII, endothelium removed: reduced
[3]; pregnant systemic circuit, various GABA levels, compared with uterine circuit (FIG. 3B)
  Relationship between PGI2 release and AII presence: substantially inverted
[3]; pregnant systemic vessels, endothelium removed (FIG. 6)
  PGI2 release in the presence of AII, endothelium removed: increased

## CC(=O)Oc1ccccc1C(=O)O [aspirin]
Cyclooxygenase (COX)
  Resting blood pressure: does not substantially affect resting blood pressure

## COc1ccc2c(c1)c(CC(=O)O)c(C)n2C(=O)c1ccc(Cl)cc1 [indomethacin]
Cyclooxygenase (COX)
  Resting blood pressure: does not substantially affect resting blood pressure

## NCCS(=O)(=O)O [Taurine, 2-amino-ethane sulfonic acid]
[2]; pregnant uterine arteries, regardless of AII presence (FIG. 1A vs 1B)
  Overall PGI2 release with versus without Taurine: overall PGI2 release appears higher without Taurine

Reference: patent US20210346460A1, “TREATMENTS FOR COVID-19-RELATED SYSTEMIC SCLEROSIS, VASCULAR INSUFFICIENCY, DISTAL ISCHEMIA, AND RELATED DISEASE CONDITIONS” (priority 2020, published 2021)
